Consider 3 molecules from patent US20150018411A1, “COMPOUNDS AS PPAR BETA/DELTA INHIBITORS FOR TREATING PPAR BETA/DELTA-MEDIATED DISEASES” (PHILIPPS-UNIVERSITAT MARBURG, priority 2011, published 2015).

Entries after “also recorded” stand apart in the source; their conditions may differ.

The target in test [1] is T1, GST-PPAR beta/delta LBD (Homo sapiens, UniProt Q03181).
T1 construct: GST-PPAR beta/delta LBD (GST=glutathione S-transferase); purchased Invitrogen, Darmstadt, Germany
T1 sequence (Q03181 211-439 limits assumed): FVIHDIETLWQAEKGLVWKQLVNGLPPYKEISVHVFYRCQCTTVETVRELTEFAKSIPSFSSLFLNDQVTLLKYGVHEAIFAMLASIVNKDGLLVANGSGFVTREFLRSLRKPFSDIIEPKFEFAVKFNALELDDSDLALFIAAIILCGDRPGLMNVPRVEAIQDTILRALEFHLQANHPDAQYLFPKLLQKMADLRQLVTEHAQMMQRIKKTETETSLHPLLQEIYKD
Nature of the test: Ligand-induced binding of corepressor peptide SMRT-ID2, TR-FRET. It counts as biochemical. The conditions noted are these: concentration dependent. On the procedure:
FIG. 2: Induction of corepressor peptide binding to GST-PPAR beta/delta ligand binding domain (LBD) in vitro in dependency of the concentration of the substances of this invention comparative compound (CC) 2, compound 1 (A), compound 2 (B), compound 3 (C), compound 4 (D) and compound 5 (E). The interaction of fluorescein-labeled SMRT-ID2 peptide with recombinant GST-PPAR beta/delta LBD bound to a terbium-labeled anti-GST antibody is determined by TR-FRET analysis. Shown is the ratio of fluorescence intensity at 520 nm (fluorescein emission, excited by terbium emission) and 495 nm (terbium emission). All data points represent average values of triplicates (+/−standard deviation).
B) The ligand-induced binding of the commercially available fluorescein-labeled corepressor peptide SMRT-ID2 ([…]) (Invitrogen, Darmstadt, Germany) to GST-PPAR beta/delta is for example measured by TR-FRET analysis using a terbium-labeled anti-GST antibody in a VICTOR3V Multilabel Counter (WALLAC 1420; PerkinElmer Life and Analytical Sciences, Rodgau, Germany). The measurement is performed in a buffer composed of 100 mM KC, 20 mM Tris pH 7.9, 0.01% Triton X100 and 1 μg/μL bovine serum albumin.

Test [2] has as its system ANGPTL4 gene expression. Nature of the test: ANGPTL4 gene expression (qPCR) in WPMY-1 myofibroblasts. It counts as cell-based, human. The note with it: Homo sapiens, 6 h; WPMY-1 cells, six hours treatment; read-out: IC50 (mean inhibitory concentration), endogenous ANGPTL4 expression. On the procedure: (§1) FIG. 5: Influence of the substances of this invention comparative compound (CC) 2, compound 1, compound 5, compound 2 and compound 3 on ANGPTL4 gene expression. • (A) Comparison of relative ANGPTL4 expression, (B) mean inhibitory concentration of substances of this invention. (A) Human myofibroblasts (WPMY-1) are treated for 24 hours with the substances of this invention (1 μM), then RNA is isolated, the cDNA synthesized and analyzed by qPCR, normalized to L27 gene expression. (B) Titration of the effect of substances of this invention on the endogenous ANGPTL4 expression in WPMY-1 cells (left) or peritoneal mouse macrophages (right) after cells have been treated for six hours with the substances of this invention compound 1 and compound 2, respectively; RNA isolation, cDNA synthesis and qPCR as described for (A). The relative expression is calculated in relation to DMSO-treated cells. All values are average values of triplicates (+1-standard deviation). Asterisks (***, **, *) indicate significant differences to DMSO-treated cells (***: p<0.001 after t-test; *: p <0.05).
The influence of substances of this invention on PPAR-beta/delta regulated genes like for example ANGPTL4 which codes for the angiopoietin-like protein ANGPTL4 is assessed in different cells with a confluence of 70% to 80% in a 6-well cell culture plate. For this purpose, cultivated human myofibroblasts (WPMY-1), peritoneal mouse macrophages or cells of the human breast cancer cell line MDA-MB-231 are treated for 24 hours with 1 μM of the substances of this invention. Cells of the breast cancer cell line are in addition stimulated for 6 hours with TGF-beta2 (2 ng/ml) which is commercially available. Subsequently, RNA is isolated from the cells by procedures known to the expert and analyzed by quantitative PCR (qPCR, real time qPCR, RT-qPCR) also known to those skilled in the art. […]

Test [3] has as its system ANGPTL4 gene expression. In words: ANGPTL4 gene expression (qPCR) in peritoneal mouse macrophages. The conditions noted are these: Macrophage, 6 h, six hours treatment, read-out: IC50 (mean inhibitory concentration), endogenous ANGPTL4 expression. Format: cell-based. On the procedure: as §1, with “All values are average values of triplicates (+1-standard deviation). Asterisks (***, **, *) indicate significant differences to DMSO-treated cells (***: p<0.001 after t-test; *: p <0.05).” left out
The influence of substances of this invention on PPAR-beta/delta regulated genes like for example ANGPTL4 which codes for the angiopoietin-like protein ANGPTL4 is assessed in different cells with a confluence of 70% to 80% in a 6-well cell culture plate. […] Subsequently, RNA is isolated from the cells by procedures known to the expert and analyzed by quantitative PCR (qPCR, real time qPCR, RT-qPCR) also known to those skilled in the art. […]
(In general: Real-time PCR tracks product formation cycle by cycle.)

Test [4] has as its system ANGPTL4 gene expression. Nature of the test: ANGPTL4 expression (qPCR) in breast cancer cell line MDA-MB-231. It counts as cell-based, human. The note with it: for TGF-beta2-induced ANGPTL4 expression: MDA-MB-231, 1 μM pre-treatment 24 hours, then TGF-beta2 2 ng/ml for 6 hours. How it is done:
FIG. 6: Influence of the substances of this invention compound 1 and compound 5 on the induction of ANGPTL4 expression by TGF-beta2 in the breast cancer cell line MDA-MB-231. • The human breast cancer cell line MDA-MB-231 is pre-treated for 24 hours with 1 μM of the substances of this invention compound 1 or compound 5, respectively, and subsequently stimulated with TGF-beta2 (2 ng/ml) for 6 hours. The relative ANGPTL4 expression is determined by qPCR.
The influence of substances of this invention on PPAR-beta/delta regulated genes like for example ANGPTL4 which codes for the angiopoietin-like protein ANGPTL4 is assessed in different cells with a confluence of 70% to 80% in a 6-well cell culture plate. For this purpose, cultivated human myofibroblasts (WPMY-1), peritoneal mouse macrophages or cells of the human breast cancer cell line MDA-MB-231 are treated for 24 hours with 1 μM of the substances of this invention. Cells of the breast cancer cell line are in addition stimulated for 6 hours with TGF-beta2 (2 ng/ml) which is commercially available. Subsequently, RNA is isolated from the cells by procedures known to the expert and analyzed by quantitative PCR (qPCR, real time qPCR, RT-qPCR) also known to those skilled in the art. For this, cDNA is synthesized using 0.25 μg to 1 μg of RNA, oligo(dT)-primers and a commercially available cDNA synthesis kit. qPCR is then conducted in a Mx3000P RT-qPCR system (Stratagene, La Jolla, Calif., USA) according to the manufacturer's instructions with 40 cycles, an annealing temperature of 60° C., and for example human ANGPTL4 primers (fw: […]; rv: […]) and the ribosomal I27 (fw: […]; rv: […]) as normalizing gene known to the expert in this field. […] The respective IC50 value (mean inhibitory concentration) for substances of this invention compound 1 and compound 2 is depicted in FIG. 5 B and is maximal 20 nM in WPMY-1 cells and maximal 30 nM in peritoneal mouse macrophages, respectively.

Test [5] concerns the target T1, GST-PPAR beta/delta LBD. In words: Inhibition of agonist L165041-induced recruitment of co-activator peptide C33, TR-FRET. Format: biochemical. The note with it: 1 μM test substance, increasing concentrations of agonist L165041. How it is done:
FIG. 3: Inhibition of agonist-induced co-activator peptide binding (A) and inverse agonist compound 1-induced corepressor peptide binding (B) by the substance of this invention compound 5. • The recruitment of the co-activator or corepressor peptide, respectively, is determined in a TR-FRET assay. As co-activator peptide, C33 is utilized, as corepressor peptide SMRT-ID2. The experiment is performed with a constant concentration of 1 μM of the substance of this invention compound 5 and increasing concentrations of the agonist L165041 (A) or the inverse agonist compound 1 (B), respectively.
C) The inhibition of the recruitment of co-activator peptide C33 known to the expert in this field mediated by PPAR beta/delta agonist L165,041 or the inhibition of the inverse agonist inventive compound 1-mediated binding of the corepressor peptide SMRT-ID2 to GST-PPAR beta/delta LBD by the substance of this invention compound 5 (1 μM) was also determined by TR-FRET measurements. Both is shown in FIGS. 3 A and B in dependency of the concentration of the agonist (A) and the inverse agonist (B), respectively.
For orientation: TR-FRET usually uses a lanthanide donor and a delayed reading to cut background.

Turning to `CCCCCCNc1ccc(NS(=O)(=O)c2ccsc2C(=O)OC)c(OC)c1` [compound 1, methyl 3-(N-(4-(hexylamino)-2-methoxyphenyl)sulfamoyl)thiophene-2-carboxylate], the “induction of interaction of PPAR beta/delta LBD with corepressor peptide SMRT-ID2” value at GST-PPAR beta/delta LBD [1] is on record as “clearly demonstrate the interaction; also recorded: induce”. Besides, the IC50 in the test on ANGPTL4 gene expression [2] is no more than 20 nM; with ANGPTL4 gene expression [3] it was no more than 30 nM. Moreover, the “TGF-beta2-induced ANGPTL4 expression” value in the test on ANGPTL4 gene expression [4] is recorded as “loss of TGF-beta2-induced ANGPTL4 expression”. For the same molecule, the ANGPTL4 expression result in the test on ANGPTL4 gene expression [4] (breast cancer cell line MDA-MB-231-luc21H4) is “drastic reduction”.

For the molecule `COC(=O)c1sccc1S(=O)(=O)Nc1ccc(NC(C)(C)C)cc1OC` [compound 5, methyl 3-(N-(4-(tert-butylamino)-2-methoxyphenyl)sulfamoyl)thiophene-2-carboxylate], the “inhibition of agonist-induced recruitment of co-activator peptide C33” value on GST-PPAR beta/delta LBD [5] is reported as “prevents”. Besides, the “TGF-beta2-induced ANGPTL4 expression” value in the test on ANGPTL4 gene expression [4] is “does not influence the induction of ANGPTL4 expression”.

With `CCCCCCNc1ccc(NS(=O)(=O)c2ccsc2C(=O)OC)cc1OC` [compound 2, methyl 3-(N-(4-(hexylamino)-3-methoxyphenyl)sulfamoyl)thiophene-2-carboxylate], on GST-PPAR beta/delta LBD [1], the “induction of interaction of PPAR beta/delta LBD with corepressor peptide SMRT-ID2” value is reported as “clearly demonstrate the interaction; also recorded: induce”. The IC50 is no more than 20 nM in the test on ANGPTL4 gene expression [2] and no more than 30 nM in the test with ANGPTL4 gene expression [3].
